From patent US20240217990A1 (Gilead Sciences, Inc., priority 2021, published 2024)

Legend:
TLR7 = molecular target: T1, TLR7 (Homo sapiens, UniProt Q9NYK1); assay: TLR7 human PBMC cell-based assay (antagonist, GS-986 stimulated cytokine release); conditions: human PBMCs; TLR7 agonist GS-986 400 nM, 6 hours; cytokines (IL-6 and IFNα) in supernatant; read-out: TLR-7 EC50
T1 construct: Human peripheral blood mononuclear cells (PBMCs) consist of lymphocytes, monocytes and dendritic cells that express TLR7, TLR8 and TLR9; endogenous in cells; host or cells: cryopreserved human PBMCs from healthy donors
T1 sequence (Q9NYK1 27-1049): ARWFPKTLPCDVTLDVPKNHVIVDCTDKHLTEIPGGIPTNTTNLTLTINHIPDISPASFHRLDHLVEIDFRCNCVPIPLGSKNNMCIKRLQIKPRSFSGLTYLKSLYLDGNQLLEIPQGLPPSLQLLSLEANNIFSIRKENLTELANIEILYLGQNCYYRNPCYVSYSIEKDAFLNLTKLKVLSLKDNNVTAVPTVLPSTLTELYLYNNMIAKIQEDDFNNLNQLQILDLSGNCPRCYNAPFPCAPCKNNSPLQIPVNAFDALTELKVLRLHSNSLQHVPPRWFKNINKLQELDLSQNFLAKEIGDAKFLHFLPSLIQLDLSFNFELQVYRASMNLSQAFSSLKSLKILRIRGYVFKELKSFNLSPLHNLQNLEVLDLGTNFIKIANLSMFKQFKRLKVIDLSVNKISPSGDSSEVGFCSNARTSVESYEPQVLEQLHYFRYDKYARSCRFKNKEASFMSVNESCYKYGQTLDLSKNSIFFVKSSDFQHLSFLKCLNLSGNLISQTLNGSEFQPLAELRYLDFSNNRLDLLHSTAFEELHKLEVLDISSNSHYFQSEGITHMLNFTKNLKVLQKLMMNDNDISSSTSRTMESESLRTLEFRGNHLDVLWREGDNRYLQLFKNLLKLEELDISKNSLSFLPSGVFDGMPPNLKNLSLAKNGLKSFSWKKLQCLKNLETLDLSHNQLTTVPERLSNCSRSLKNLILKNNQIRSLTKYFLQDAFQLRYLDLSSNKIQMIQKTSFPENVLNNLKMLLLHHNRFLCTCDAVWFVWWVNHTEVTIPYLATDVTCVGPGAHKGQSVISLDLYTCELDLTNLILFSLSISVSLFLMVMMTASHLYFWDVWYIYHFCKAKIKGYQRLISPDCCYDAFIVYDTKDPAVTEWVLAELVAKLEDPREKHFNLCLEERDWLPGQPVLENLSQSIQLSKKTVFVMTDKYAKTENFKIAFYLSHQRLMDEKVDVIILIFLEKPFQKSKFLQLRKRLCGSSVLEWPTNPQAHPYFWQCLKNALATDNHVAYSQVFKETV
Excerpt: (§1) Human peripheral blood mononuclear cells (PBMCs) consist of lymphocytes, monocytes and dendritic cells that express TLR7, TLR8 and TLR9. These cells respond to TLR7, TLR8 and TLR9 ligand stimulation and produce cytokines and chemokines in vitro and in vivo. Human PBMCs are therefore suitable to be used in a cell-based assay to assess the in vitro potency of a TLR 7, 8, and/or 9 antagonist. The result is expected to be more translatable to the pharmacodynamics response in vivo than cell line-based assays.
Cryopreserved human PBMCs from healthy donors were thawed and resuspended in RPMI-1640 media with L-glutamine (Corning) supplemented with 10% Fetal Bovine Serum (Hyclone) and 1× Penicillin-Streptomycin (Corning). After counting, the cell density was adjusted to 2 million cells/ml and incubated for 1 hour at 37° C., 5% CO2 for recovery. Following the recovery, the cells were plated by adding 50 μl per well (100,000 cells) to 384-well cell culture plates (Greiner) containing 250 nl of test antagonists in 100% DMSO per well, in a 10 points dose response in quadruplicates. PBMCs were incubated in the presence of test antagonists for one hour at 37° C., 5% CO2 before being stimulated with a TLR7 or TLR9agonist. GS-986 (Gilead Sciences) was used as the TLR7 agonist at a final concentration of 400 nM. ODN-2216 (InvivoGen) was used as the TLR9 agonist at a final concentration of 3 μM. PBMCs were incubated in the presence of the test antagonist and the TLR7 (or TLR9) agonist for an additional 6 hours at 37° C., 5% CO2. At the end of the incubation, the cell culture plates were centrifuged at 500 g for 5 min, and the cell culture supernatant was collected. The level of cytokines (IL-6 and IFNα) in the supernatant was measured by electrochemiluminescence immunoassays (Mesoscale Discovery) following manufacturer's recommended protocols. The level of cytokine measured was plotted against the test antagonist concentration and fitted to a sigmoidal function to determine the EC50, which are shown below in Table 11.

TLR8 = molecular target: T2, TLR8 (Homo sapiens, UniProt Q9NR97); assay: TLR8 human PBMC cell-based assay (antagonist, Compound A stimulated cytokine release); conditions: human PBMCs; TLR8 agonist Compound A 800 nM, 6 hours; cytokines (TNFa and IL 12p40) in supernatant; read-out: TLR-8 EC50
T2 construct: Human peripheral blood mononuclear cells (PBMCs) consist of lymphocytes, monocytes and dendritic cells that express TLR7, TLR8 and TLR9; endogenous in cells; host or cells: cryopreserved human PBMCs from healthy donors
T2 sequence (Q9NR97 27-1041): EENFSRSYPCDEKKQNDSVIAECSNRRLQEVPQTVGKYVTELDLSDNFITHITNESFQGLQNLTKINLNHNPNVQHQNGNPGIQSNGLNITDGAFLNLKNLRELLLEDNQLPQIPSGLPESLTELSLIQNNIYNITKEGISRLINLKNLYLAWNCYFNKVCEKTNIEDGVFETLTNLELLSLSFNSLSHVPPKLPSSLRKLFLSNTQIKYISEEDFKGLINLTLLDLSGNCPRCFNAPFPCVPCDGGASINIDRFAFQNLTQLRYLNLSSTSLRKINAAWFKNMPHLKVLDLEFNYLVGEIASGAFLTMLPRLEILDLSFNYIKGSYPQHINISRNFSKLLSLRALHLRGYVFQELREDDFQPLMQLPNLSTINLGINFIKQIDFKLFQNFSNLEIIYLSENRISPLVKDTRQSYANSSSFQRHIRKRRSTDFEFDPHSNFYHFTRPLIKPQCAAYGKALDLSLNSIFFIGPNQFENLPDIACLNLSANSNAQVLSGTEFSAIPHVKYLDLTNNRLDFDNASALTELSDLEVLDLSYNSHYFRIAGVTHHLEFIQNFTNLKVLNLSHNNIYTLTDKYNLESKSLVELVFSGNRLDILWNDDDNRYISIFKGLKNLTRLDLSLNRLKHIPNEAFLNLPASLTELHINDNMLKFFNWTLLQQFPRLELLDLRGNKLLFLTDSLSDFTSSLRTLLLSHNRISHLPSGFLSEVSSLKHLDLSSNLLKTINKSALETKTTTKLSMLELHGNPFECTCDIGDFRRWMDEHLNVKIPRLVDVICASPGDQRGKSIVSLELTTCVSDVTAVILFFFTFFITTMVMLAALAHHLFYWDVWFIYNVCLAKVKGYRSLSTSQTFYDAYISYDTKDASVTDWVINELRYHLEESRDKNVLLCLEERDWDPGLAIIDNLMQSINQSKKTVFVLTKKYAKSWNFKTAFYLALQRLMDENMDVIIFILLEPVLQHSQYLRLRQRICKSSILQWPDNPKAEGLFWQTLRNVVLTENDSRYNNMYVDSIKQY
Excerpt: as §1
Cryopreserved human PBMCs from healthy donors were thawed and resuspended in RPMI-1640 media with L-glutamine (Corning) supplemented with 10% Fetal Bovine Serum (Hyclone) and 1X Penicillin-Streptomycin (Corning). After counting, the cell density was adjusted to 2 million cells/ml and incubated for 1 hour at 37° C., 5% CO2 for recovery. Following the recovery, the cells were plated by adding 50 μl per well (100,000 cells) to 384-well cell culture plates (Greiner) containing 250 nl of test antagonists in 100% DMSO per well, in a 10 points dose response in quadruplicates. PBMCs were incubated in the presence of antagonists for one hour at 37° C., 5% CO2 before being stimulated with TLR8 agonist. Compound A (Gilead Sciences, U.S. Pat. No. 10,285,990) was used as the TLR8 agonist at a final concentration of 800 nM. PBMCs were incubated in the presence of antagonist and the TLR8 agonist for an additional 6 hours at 37° C., 5% CO2. At the end of the incubation, the cell culture plates were centrifuged at 500 g for 5 min, and the cell culture supernatant was collected. The level of cytokines (TNFa and IL 12p40) in the supernatant was measured by electrochemiluminescence immunoassays (Mesoscale Discovery) following manufacturer's recommended protocols. The level of cytokine measured was plotted against the antagonist concentration and fitted to a sigmoidal function to determine the EC50, which are shown below in Table 11.

| EC50 (TLR7) [nM] | EC50 (TLR8) [nM] | Structure (SMILES) |
| --- | --- | --- |
| 1.8 | 1.6 | Cc1cc(-c2[nH]c3cc(-c4cn(C5CCN(CCO)CC5)nn4)sc3c2C(C)C)cn2ncnc12 [Example 264, 2-(4-(4-(6-isopropyl-5-(8-methyl-[1,2,4]triazolo[1,5-a]pyridin-6-yl)-4H-thieno[3,2-b]pyrrol-2-yl)-1H-1,2,3-triazol-1-yl)piperidin-1-yl)ethan-1-ol] |
| 37.5 | 31.7 | Cc1cc(-c2[nH]c3cc(C(=O)N4CCC(N)CC4)sc3c2C(C)C)cc(C)n1 [Example 2] |
| 1.2 | 0.3 | Cc1cc(-c2[nH]c3cc(C(=O)N4CCN[C@@H](C)C4)sc3c2C(C)C)cn2ncnc12 [Example 125] |
| 0.5 | 2.3 | Cc1cc(-c2[nH]c3cc(-c4ccc(N5CCNCC5)nc4)sc3c2C(C)C)cn2ncnc12 [Example 210] |
| 50.1 | 94 | Cc1cc(-c2[nH]c3cc(C(=O)N(C)[C@@H]4CCNC4)sc3c2C(C)C)cc(C)n1 [Example 22] |
| 223 | 26.4 | Cc1cc(-c2[nH]c3cc(C(=O)N4C[C@@H]5C[C@H]4CN5)sc3c2C(C)C)cc(C)n1 [Example 20] |
| 4.1 | 30.8 | Cc1cc(-c2[nH]c3cc(C(=O)N(C)[C@@H]4CNC[C@H]4F)sc3c2C(C)C)cn2ncnc12 [Example 60] |
| 2.1 | 3.1 | Cc1cc(-c2[nH]c3cc(C4CCN(CC5(C)COC5)CC4)sc3c2C(C)C)cn2ncnc12 [Example 186, 6-isopropyl-5-(8-methyl-[1,2,4]triazolo[1,5-a]pyridin-6-yl)-2-(1-((3-methyloxetan-3-yl)methyl)piperidin-4-yl)-4H-thieno[3,2-b]pyrrole] |
| 7.6 | 14.9 | Cc1cc(-c2[nH]c3cc(-c4nc(C5CCNCC5)no4)sc3c2C(C)C)cc(C)n1 [Example 55] |
| 1.2 | 9 | Cc1cc(-c2[nH]c3cc(C(=O)N4CCC5(CCNC5)CC4)sc3c2C(C)C)cn2ncnc12 [Example 121] |
| 0.6 | 2.8 | Cc1cc(-c2[nH]c3cc(C(=O)N4CCC[C@H]5NCC[C@H]54)sc3c2C(C)C)cn2ncnc12 [Example 108] |
| 1.7 | 12.7 | Cc1cc(-c2[nH]c3cc(C(=O)N(C)[C@@H]4CNC[C@@H]4F)sc3c2C(C)C)cn2ncnc12 [Example 57] |
| 0.2 | 1 | Cc1cc(-c2[nH]c3cc(C4CCC5(CC4)CN(CC(N)=O)C5)sc3c2C(C)C)cn2ncnc12 [Example 177] |
| 0.5 | 9 | Cc1cc(-c2[nH]c3cc(C4CCN(C(=O)[C@H]5CCN(C)C5)CC4)sc3c2C(C)C)cn2ncnc12 [Example 205] |
| 0.4 | 3.2 | Cc1cc(-c2[nH]c3cc(-c4nnc(N5CCNCC5)s4)sc3c2C(C)C)cn2ncnc12 [Example 49] |
| 4.1 | 3.2 | Cc1cc(-c2[nH]c3cc(C4CCN(CCS(C)(=O)=O)CC4)sc3c2C(C)C)cn2ncnc12 [Example 255, 6-isopropyl-5-(8-methyl-[1,2,4]triazolo[1,5-a]pyridin-6-yl)-2-(1-(2-(methylsulfonyl)ethyl)piperidin-4-yl)-4H-thieno[3,2-b]pyrrole] |
| 2.78 | 0.78 | Cc1c(-c2[nH]c3cc(C4CCN(CC(N)=O)CC4)sc3c2C(C)C)cn2ncnc2c1C [Example 279] |
| 4.6 | 16.3 | Cc1cc(-c2[nH]c3cc(C(=O)N4CC[C@H](C)[C@H](N)C4)sc3c2C(C)C)cn2ncnc12 [Example 105] |
| 2.74 | 19.5 | Cc1cc(-c2[nH]c3cc(C4CC5CCCC(C4)N5)sc3c2C(C)C)cn2ncnc12 (stereo not drawn) [Example 297] |
| 0.2 | 8.7 | Cc1cc(-c2[nH]c3cc(C4CCC5(CC4)CN(C(=O)CN(C)C)C5)sc3c2C(C)C)cn2ncnc12 [Example 185] |
| 822 | > 1000 | CC(C)c1c(-c2ccn3ccnc3c2)[nH]c2cc(C(=O)N3CCNCC3)sc12 [Example 68] |
